From PubChem BioAssay AID2060601 (Molecular Pharmacology Branch, DTP, NCI, 2025)

System: 874868-142-R-J2-PDC complex spheroids, growth % test/control
Assay: Anticancer human tumor 874868-142-R-J2-PDC patient-derived head and neck squamous carcinoma cell line growth inhibition [CLK]
Conditions: for IC50: curve of first compound; for viability, T/C: stronger effect = lower value
Summary of the method: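 Patient-derived tumor cells grown as complex spheroids with HUVEC endothelial cells and mesenchymal stem cells, treated with drug combinations. Concentrations descend in half-log steps from near clinical Cmax, or from 10 microM if Cmax unknown.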

[1] = second compound 0.0316 µM, first compound 0.0316 µM
[2] = second compound 0.0316 µM, first compound 0.1 µM
[3] = second compound 0.0316 µM, first compound 0.316 µM
[4] = second compound 0.0316 µM, first compound 1 µM
[5] = second compound 0.1 µM, first compound 0.0316 µM
[6] = second compound 0.1 µM, first compound 0.1 µM
[7] = second compound 0.1 µM, first compound 0.316 µM
[8] = second compound 0.1 µM, first compound 1 µM
[9] = second compound 0.316 µM, first compound 0.0316 µM
[10] = second compound 0.316 µM, first compound 0.1 µM
[11] = second compound 0.316 µM, first compound 0.316 µM
[12] = second compound 0.316 µM, first compound 1 µM
[13] = second compound 1 µM, first compound 0.0316 µM
[14] = second compound 1 µM, first compound 0.1 µM
[15] = second compound 1 µM, first compound 0.316 µM
[16] = second compound 1 µM, first compound 1 µM
[17] = second compound 3.16 µM, first compound 0.0316 µM
[18] = second compound 3.16 µM, first compound 0.1 µM
[19] = second compound 3.16 µM, first compound 0.316 µM
[20] = second compound 3.16 µM, first compound 1 µM
[21] = second compound 10 µM, first compound 0.0316 µM
[22] = second compound 10 µM, first compound 0.1 µM
[23] = second compound 10 µM, first compound 0.316 µM
[24] = second compound 10 µM, first compound 1 µM
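Note: spheroids exposed to the compounds for 7 days.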
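Throughout, for viability, T/C: 100% = DMSO vehicle control viability.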

Compound: C=CC(=O)Nc1cc(Nc2nccc(-c3cn(C)c4ccccc34)n2)c(OC)cc1N(C)CCN(C)C + CNC(=O)c1ccc(Nc2nc(OC3CCCC3)c3c(-c4ccc5nc(C)oc5c4)c[nH]c3n2)c(OC)c1
- IC50 (second compound 0.0316 µM): 0.0359 µM
- IC50 (second compound 0.1 µM): 0.0222 µM
- IC50 (second compound 0.316 µM): 0.00475 µM
- IC50 (second compound 1 µM): < 0.000949 µM
- IC50 (second compound 3.16 µM): < 0.000949 µM
- IC50 (second compound 10 µM): < 0.000949 µM
- viability, T/C (second compound 0.0316 µM, first compound 0.000949 µM): 101%
- viability, T/C (second compound 0.0316 µM, first compound 0.003 µM): 115%
- viability, T/C (second compound 0.0316 µM, first compound 0.00949 µM): 77.4%
- viability, T/C (second compound 0.0316 µM, first compound 0.03 µM): 51.3%
- viability, T/C (second compound 0.0316 µM, first compound 0.0949 µM): 45.7%
- viability, T/C (second compound 0.0316 µM, first compound 0.3 µM): 23.9%
- viability, T/C (second compound 0.1 µM, first compound 0.000949 µM): 103%
- viability, T/C (second compound 0.1 µM, first compound 0.003 µM): 75%
- viability, T/C (second compound 0.1 µM, first compound 0.00949 µM): 57.5%
- viability, T/C (second compound 0.1 µM, first compound 0.03 µM): 52.4%
- viability, T/C (second compound 0.1 µM, first compound 0.0949 µM): 30.6%
- viability, T/C (second compound 0.1 µM, first compound 0.3 µM): 19.8%
- viability, T/C (second compound 0.316 µM, first compound 0.000949 µM): 64.4%
- viability, T/C (second compound 0.316 µM, first compound 0.003 µM): 48.9%
- viability, T/C (second compound 0.316 µM, first compound 0.00949 µM): 48%
- viability, T/C (second compound 0.316 µM, first compound 0.03 µM): 38.5%
- viability, T/C (second compound 0.316 µM, first compound 0.0949 µM): 24.8%
- viability, T/C (second compound 0.316 µM, first compound 0.3 µM): 24.3%
- viability, T/C (second compound 1 µM, first compound 0.000949 µM): 48.9%
- viability, T/C (second compound 1 µM, first compound 0.003 µM): 40.5%
- viability, T/C (second compound 1 µM, first compound 0.00949 µM): 38.6%
- viability, T/C (second compound 1 µM, first compound 0.03 µM): 32.5%
- viability, T/C (second compound 1 µM, first compound 0.0949 µM): 26.4%
- viability, T/C (second compound 1 µM, first compound 0.3 µM): 14.4%
- viability, T/C (second compound 3.16 µM, first compound 0.000949 µM): 43.4%
- viability, T/C (second compound 3.16 µM, first compound 0.003 µM): 39.6%
- viability, T/C (second compound 3.16 µM, first compound 0.00949 µM): 38%
- viability, T/C (second compound 3.16 µM, first compound 0.03 µM): 31.5%
- viability, T/C (second compound 3.16 µM, first compound 0.0949 µM): 25.5%
- viability, T/C (second compound 3.16 µM, first compound 0.3 µM): 20%
- viability, T/C (second compound 10 µM, first compound 0.000949 µM): 41.8%
- viability, T/C (second compound 10 µM, first compound 0.003 µM): 37.7%
- viability, T/C (second compound 10 µM, first compound 0.00949 µM): 32.7%
- viability, T/C (second compound 10 µM, first compound 0.03 µM): 32.3%
- viability, T/C (second compound 10 µM, first compound 0.0949 µM): 28%
- viability, T/C (second compound 10 µM, first compound 0.3 µM): 18.3%

Compound: CCN1CCN(Cc2ccc(Nc3ncc(F)c(-c4cc(F)c5nc(C)n(C(C)C)c5c4)n3)nc2)CC1 + CNC(=O)c1ccc(Nc2nc(OC3CCCC3)c3c(-c4ccc5nc(C)oc5c4)c[nH]c3n2)c(OC)c1
- IC50 (second compound 0.0316 µM): > 1 µM
- IC50 (second compound 0.1 µM): > 1 µM
- IC50 (second compound 0.316 µM): > 1 µM
- IC50 (second compound 1 µM): < 0.00316 µM
- IC50 (second compound 3.16 µM): < 0.00316 µM
- IC50 (second compound 10 µM): < 0.00316 µM
- viability, T/C (second compound 0.0316 µM, first compound 0.00316 µM): 96.9%
- viability, T/C (second compound 0.0316 µM, first compound 0.01 µM): 103%
- viability, T/C [1]: 95.2%
- viability, T/C [2]: 100%
- viability, T/C [3]: 121%
- viability, T/C [4]: 113%
- viability, T/C (second compound 0.1 µM, first compound 0.00316 µM): 106%
- viability, T/C (second compound 0.1 µM, first compound 0.01 µM): 91.8%
- viability, T/C [5]: 94.5%
- viability, T/C [6]: 81.6%
- viability, T/C [7]: 109%
- viability, T/C [8]: 113%
- viability, T/C (second compound 0.316 µM, first compound 0.00316 µM): 59.4%
- viability, T/C (second compound 0.316 µM, first compound 0.01 µM): 62.7%
- viability, T/C [9]: 56.2%
- viability, T/C [10]: 64.6%
- viability, T/C [11]: 84.8%
- viability, T/C [12]: 99.9%
- viability, T/C (second compound 1 µM, first compound 0.00316 µM): 46.2%
- viability, T/C (second compound 1 µM, first compound 0.01 µM): 44.8%
- viability, T/C [13]: 44.4%
- viability, T/C [14]: 49.3%
- viability, T/C [15]: 67.9%
- viability, T/C [16]: 68.7%
- viability, T/C (second compound 3.16 µM, first compound 0.00316 µM): 41.9%
- viability, T/C (second compound 3.16 µM, first compound 0.01 µM): 50.8%
- viability, T/C [17]: 41.5%
- viability, T/C [18]: 38.5%
- viability, T/C [19]: 50.8%
- viability, T/C [20]: 72.5%
- viability, T/C (second compound 10 µM, first compound 0.00316 µM): 46.2%
- viability, T/C (second compound 10 µM, first compound 0.01 µM): 40.5%
- viability, T/C [21]: 56%
- viability, T/C [22]: 45.6%
- viability, T/C [23]: 66.8%
- viability, T/C [24]: 71.2%

Compound: Nc1ccccc1NC(=O)c1ccc(CNC(=O)OCc2cccnc2)cc1 + CNC(=O)c1ccc(Nc2nc(OC3CCCC3)c3c(-c4ccc5nc(C)oc5c4)c[nH]c3n2)c(OC)c1
- IC50 (second compound 0.0316 µM): 7.27 µM
- IC50 (second compound 0.1 µM): 7.26 µM
- IC50 (second compound 0.316 µM): 4.8 µM
- IC50 (second compound 1 µM): 0.252 µM
- IC50 (second compound 3.16 µM): 3.95 µM
- IC50 (second compound 10 µM): 3.44 µM
- viability, T/C [1]: 107%
- viability, T/C [2]: 87.5%
- viability, T/C [3]: 110%
- viability, T/C [4]: 114%
- viability, T/C (second compound 0.0316 µM, first compound 3.16 µM): 109%
- viability, T/C (second compound 0.0316 µM, first compound 10 µM): 28.7%
- viability, T/C [5]: 82.6%
- viability, T/C [6]: 73.7%
- viability, T/C [7]: 94.4%
- viability, T/C [8]: 109%
- viability, T/C (second compound 0.1 µM, first compound 3.16 µM): 101%
- viability, T/C (second compound 0.1 µM, first compound 10 µM): 33.6%
- viability, T/C [9]: 61.5%
- viability, T/C [10]: 61.4%
- viability, T/C [11]: 67.8%
- viability, T/C [12]: 79.9%
- viability, T/C (second compound 0.316 µM, first compound 3.16 µM): 88.9%
- viability, T/C (second compound 0.316 µM, first compound 10 µM): 11.3%
- viability, T/C [13]: 42.4%
- viability, T/C [14]: 45%
- viability, T/C [15]: 52.1%
- viability, T/C [16]: 66.9%
- viability, T/C (second compound 1 µM, first compound 3.16 µM): 76.6%
- viability, T/C (second compound 1 µM, first compound 10 µM): 11.9%
- viability, T/C [17]: 49.2%
- viability, T/C [18]: 47%
- viability, T/C [19]: 56.9%
- viability, T/C [20]: 71.8%
- viability, T/C (second compound 3.16 µM, first compound 3.16 µM): 72.1%
- viability, T/C (second compound 3.16 µM, first compound 10 µM): 10.8%
- viability, T/C [21]: 41.8%
- viability, T/C [22]: 44%
- viability, T/C [23]: 49%
- viability, T/C [24]: 67.3%
- viability, T/C (second compound 10 µM, first compound 3.16 µM): 69.2%
- viability, T/C (second compound 10 µM, first compound 10 µM): 3.57%
